Values quoted from earlier work in US20050255049A1, “Formoterol and mometasone aerosol formulations” (priority 2002, published 2005).

Details: stated in the background

SMILES: C[C@@H]1C[C@H]2[C@@H]3CCC4=CC(=O)C=C[C@]4(C)[C@@]3(Cl)[C@@H](O)C[C@]2(C)[C@@]1(OC(=O)c1ccco1)C(=O)CCl [mometasone furoate, (11 beta, 16alpha)-9,21-dichloro-17-[(2-furanylcarbonyl)oxy]-11-hydroxy-16-methylpregna-1,4-diene-3,20-dione]
- density: 1.4 g cm^−3
